ChEMBL document CHEMBL1149774, “Synthesis of N-(5,7-diamino-3-phenyl-quinoxalin-2-yl)-3,4,5-substituted anilines and N-[4[(5,7-diamino-3-phenylquinoxalin-2-yl)amino]benzoyl]-l-glutamic acid diethyl ester: evaluation of in vitro anti-cancer and anti-folate activities” (Eur J Med Chem, 2008)

Experiments:
Assay type in all cases: functional
CAKI-1 = assay: Growth inhibition of human CAKI1 cells after 48 hrs by SRB staining method; conditions: CAKI-1, 48 h
EKVX = assay: Growth inhibition of human EKVX cells after 48 hrs by SRB staining method
IGROV-1 = assay: Growth inhibition of human IGROV1 cells after 48 hrs by SRB staining method; conditions: IGROV-1, 48 h
RPMI-8226 = assay: Growth inhibition of human RPMI8226 cells after 48 hrs by SRB staining method; conditions: RPMI-8226, 48 h
SK-MEL-2 = assay: Growth inhibition of human SK-MEL-2 cells after 48 hrs by SRB staining method; conditions: SK-MEL-2, 48 h
SF-295 = assay: Growth inhibition of human SF295 cells after 48 hrs by SRB staining method; conditions: SF-295, 48 h
K562 = assay: Growth inhibition of human K562 cells after 48 hrs by SRB staining method; conditions: K562, 48 h
UACC-62 = assay: Growth inhibition of human UACC62 cells after 48 hrs by SRB staining method; conditions: UACC-62, 48 h
OVCAR-4 = assay: Growth inhibition of human OVCAR4 cells after 48 hrs by SRB staining method; conditions: OVCAR-4, 48 h
SNB-19 = assay: Growth inhibition of human SNB19 cells after 48 hrs by SRB staining method; conditions: SNB-19, 48 h
OVCAR-3 = assay: Growth inhibition of human OVCAR-3 cells after 48 hrs by SRB staining method; conditions: OVCAR-3, 48 h
T47D = assay: Growth inhibition of human T47D cells after 48 hrs by SRB staining method
[1] = Growth inhibition of human HS 578T cells after 48 hrs by SRB staining method
SW-620 = assay: Growth inhibition of human SW620 cells after 48 hrs by SRB staining method; conditions: SW-620, 48 h
HL-60 = assay: Growth inhibition of human HL60 cells after 48 hrs by SRB staining method; conditions: HL-60, 48 h
SN12C = assay: Growth inhibition of human SN12C cells after 48 hrs by SRB staining method
NCI-H226 = assay: Growth inhibition of human NCI-H226 cells after 48 hrs by SRB staining method; conditions: NCI-H226, 48 h
[2] = read-out: pLC50 (the source's name) (converted)

COc1cc(Nc2nc3cc(N)cc(N)c3nc2-c2ccccc2)cc(OC)c1
GI50 (CAKI-1): 14.8 µM
CC50 (CAKI-1; [2]): > 100 µM
TGI (CAKI-1; read-out: pTGI (converted)): 72.4 µM
GI50 (EKVX): 13.2 µM
CC50 (EKVX; [2]): > 100 µM
TGI (EKVX; read-out: pTGI (converted)): 64.6 µM
GI50 (IGROV-1): 2.69 µM
LC50 (IGROV-1): > 100 µM
TGI (IGROV-1; read-out: pTGI (converted)): 17 µM
GI50 (RPMI-8226): 1.26 µM
CC50 (RPMI-8226; [2]): 32.4 µM
TGI (RPMI-8226; read-out: pTGI (converted)): 10.5 µM
GI50 (SK-MEL-2): 12 µM
LC50 (SK-MEL-2): > 100 µM
TGI (SK-MEL-2; read-out: pTGI (converted)): 63.1 µM
GI50 (SF-295): 12.6 µM
LC50 (SF-295): > 100 µM
TGI (SF-295; read-out: pTGI (converted)): 58.9 µM
GI50 (K562): 27.5 µM
CC50 (K562; [2]): > 100 µM
TGI (K562; read-out: pTGI (converted)): > 100 µM
GI50 (UACC-62): 7.41 µM
LC50 (UACC-62): 61.7 µM
TGI (UACC-62; read-out: pTGI (converted)): 23.4 µM
GI50 (OVCAR-4): 17.8 µM
LC50 (OVCAR-4): > 100 µM
TGI (OVCAR-4; read-out: pTGI (converted)): > 100 µM
GI50 (SNB-19): 57.5 µM
LC50 (SNB-19): > 100 µM
TGI (SNB-19; read-out: pTGI (converted)): > 100 µM
GI50 (OVCAR-3): 3.89 µM
LC50 (OVCAR-3): 100 µM
TGI (OVCAR-3; read-out: pTGI (converted)): 20 µM
GI50 (T47D): 4.47 µM
CC50 (T47D; [2]): > 100 µM
TGI (T47D; read-out: pTGI (converted)): 22.9 µM
GI50 [1]: 11 µM
CC50 [1, 2]: > 100 µM
TGI ([1]; read-out: pTGI (converted)): 63.1 µM
GI50 (SW-620): 26.9 µM
CC50 (SW-620; [2]): > 100 µM
TGI (SW-620; read-out: pTGI (converted)): > 100 µM
GI50 (HL-60): 10 µM
CC50 (HL-60; [2]): > 100 µM
TGI (HL-60; read-out: pTGI (converted)): > 100 µM
GI50 (SN12C): 8.71 µM
CC50 (SN12C; [2]): > 100 µM
TGI (SN12C; read-out: pTGI (converted)): > 100 µM
GI50 (NCI-H226): 2.88 µM
